Measured values as given in paper PMC4166032 (Bioconjugate Chemistry, 2014).
Like-named read-outs stand apart in the source and are kept apart here. One block for each molecule: values may come before it.

What was measured:
GST-hPXR-LBD [1] = target: T1, GST-hPXR-LBD (Homo sapiens, UniProt O75469); assay: biochemical; conditions: 30 min
T1 sequence (O75469 146-433 limits assumed): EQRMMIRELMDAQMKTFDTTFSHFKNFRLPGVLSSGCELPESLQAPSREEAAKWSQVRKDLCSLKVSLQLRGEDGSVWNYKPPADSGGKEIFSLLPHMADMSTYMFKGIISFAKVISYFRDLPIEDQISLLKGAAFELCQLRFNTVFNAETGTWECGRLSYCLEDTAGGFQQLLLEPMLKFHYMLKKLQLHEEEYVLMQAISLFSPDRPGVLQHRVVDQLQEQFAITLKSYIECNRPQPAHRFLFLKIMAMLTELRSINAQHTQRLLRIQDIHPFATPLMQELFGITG

PXR = conditions: cited from earlier work; for IC50: read-out: reported IC50, BODIPY FL vinblastine (4) as fluorescent probe
GST-hPXR-LBD [2] = target: T1, GST-hPXR-LBD
GST-hPXR-LBD [3] = target: T1, GST-hPXR-LBD; assay: biochemical

- IC50 (GST-hPXR-LBD [1]; IC50 with 50 nM 20, 50 nM BODIPY FL vindoline (20) probe): 20.7 µM
- IC50 (GST-hPXR-LBD [1]; IC50 with 100 nM 20, 100 nM BODIPY FL vindoline (20) probe, laboratory assay buffer, 1.1% DMSO): 37.7 µM
SMILES: C[C@@H]1C(=O)O[C@H]2C[C@@]34[C@H]5C[C@@H](C(C)(C)C)[C@]36[C@@H](OC(=O)[C@@H]6O)O[C@@]4(C(=O)O5)[C@]21O [ginkgolide A (8), ginkgolide A]
- IC50 (PXR): 13.7 µM

SMILES: Clc1ccccc1C(c1ccccc1)(c1ccccc1)n1ccnc1 [clotrimazole (6), clotrimazole]
- IC50 (PXR): 1.94 µM

SMILES: CC[C@]1(O)C[C@@H]2CN(CCc3c([nH]c4ccccc34)[C@@](C(=O)OC)(c3cc4c(cc3OC)N(C)[C@H]3[C@@](O)(C(=O)OC)[C@H](OC(C)=O)[C@]5(CC)C=CCN6CC[C@]43[C@@H]65)C2)C1 [vinblastine (10), vinblastine]
- PXR-specific binding affinity (PXR): low PXR-specific binding affinity

SMILES: CCC12C=CCN3CC[C@@]4(c5ccc(OC)cc5N(C)[C@H]4[C@@](O)(C(=O)OC)[C@@H]1OC(C)=O)[C@@H]32 (some centres unmarked) [vindoline (14), vindoline]
- inhibitory activity at 100 μM (GST-hPXR-LBD [2]): 93%
- IC50 (GST-hPXR-LBD [3]): 12.9 µM
- Ki (GST-hPXR-LBD [3]): 11.2 µM
